Here are results for one compound from patent US20210309951A1, “USE OF NATURAL FLAVORS AND NATURAL SMOKE FLAVORS TO ENHANCE FUNCTIONALITY OF BUFFERED ORGANIC ACIDS AND METHODS FOR PRODUCING THE SAME” (Kerry Luxembourg S.à.r.I., priority 2020, published 2021).

The target of the assay is lysine residues on bovine serum albumin (Bos taurus, UniProt P02769). The assay can be described thus: Protein crosslinking method (reactivity with lysine residues). Type of assay: biochemical. The note with it: 30 mM working concentration, 70° C., BSA 10 mg/mL; among standard reference materials. On the procedure:
Selected active carbonyl compounds (glycolaldehyde, glyoxal, methyl glyoxal, and other carbonyls) were compared for their protein crosslinking capability. Standard reference materials were purchased from Sigma Aldrich [Glycolaldehyde (material no. G6805-5G, batch no. STBG0623V), Glyoxal (material no. 128465-500G, batch no. STBH8032), Methylglyoxal (material no. M0252-250 ml, batch no. BCBT1161), and other carbonyl (material no. F8775-500 ml, batch no. MKCK0272)]. Glutaraldehyde used as a reference material. The protein crosslinking capability was measured as their reactivity with lysine residues on bovine serum albumin (FIG. 6). In the Protein Crosslinking method, experiments were conducted at 30 mM working concentration of individual carbonyls and at 70° C.
Two IsoFin Products were made using two different types of natural liquid smoke flavors (CS9 and MA45GF) and were compared for total carbonyls and protein crosslinking capability. Among the two, the IsoFin B (CS9 based) was made with 50% CS9 (lot #0218938702, Zesti Smoke, Kerry America Region, Monterey, Tenn.) and 50% Homestyle vinegar flavor (IsoAge Technologies, Springfield, Mo.), whereas the IsoFin B (MA45GF based) was made with 9% MA45GF (lot #0214042186, Red Arrow, Kerry America Region, Manitowoc, Wis.)), 1% 300 grain vinegar (lot #09918209), and 90% Homestyle vinegar flavor. […]

Sequence of lysine residues on bovine serum albumin (P02769 25-607): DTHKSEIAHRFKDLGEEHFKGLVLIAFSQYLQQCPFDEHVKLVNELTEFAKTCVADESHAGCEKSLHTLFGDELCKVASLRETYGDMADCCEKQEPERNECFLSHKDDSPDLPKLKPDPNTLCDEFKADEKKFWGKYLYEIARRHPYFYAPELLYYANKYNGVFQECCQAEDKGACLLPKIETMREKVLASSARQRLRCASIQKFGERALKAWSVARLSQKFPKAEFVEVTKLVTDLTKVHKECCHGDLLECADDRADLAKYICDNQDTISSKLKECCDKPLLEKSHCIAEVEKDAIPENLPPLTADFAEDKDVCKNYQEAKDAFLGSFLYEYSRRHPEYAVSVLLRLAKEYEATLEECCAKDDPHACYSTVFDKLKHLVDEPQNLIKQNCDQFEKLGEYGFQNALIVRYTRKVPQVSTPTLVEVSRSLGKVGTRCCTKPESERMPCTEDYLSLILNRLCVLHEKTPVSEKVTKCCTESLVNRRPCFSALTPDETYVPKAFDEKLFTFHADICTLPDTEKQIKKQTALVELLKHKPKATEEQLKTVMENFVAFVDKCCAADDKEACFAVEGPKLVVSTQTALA

As to `O=CCO` [glycolaldehyde, Glycolaldehyde], the “reactivity with lysine (protein crosslinking capability)” value is recorded as “maximum reactivity with lysine”.
